Source: ChEMBL document CHEMBL5291721, “A preclinical secondary pharmacology resource illuminates target-adverse drug reaction associations of marketed drugs” (Nat Commun, 2023)

Experiments:
[1] = target: T1, Gamma-aminobutyric acid receptor subunit alpha-1 (Rattus norvegicus, UniProt P62813); type: functional
[2] = target: 5-hydroxytryptamine receptor 2A (Homo sapiens, UniProt P28223); type: functional, cell-based
[3] = target: T2, Gastrin/cholecystokinin type B receptor (Homo sapiens, UniProt P32239)
T2 sequence (P32239 whole entry): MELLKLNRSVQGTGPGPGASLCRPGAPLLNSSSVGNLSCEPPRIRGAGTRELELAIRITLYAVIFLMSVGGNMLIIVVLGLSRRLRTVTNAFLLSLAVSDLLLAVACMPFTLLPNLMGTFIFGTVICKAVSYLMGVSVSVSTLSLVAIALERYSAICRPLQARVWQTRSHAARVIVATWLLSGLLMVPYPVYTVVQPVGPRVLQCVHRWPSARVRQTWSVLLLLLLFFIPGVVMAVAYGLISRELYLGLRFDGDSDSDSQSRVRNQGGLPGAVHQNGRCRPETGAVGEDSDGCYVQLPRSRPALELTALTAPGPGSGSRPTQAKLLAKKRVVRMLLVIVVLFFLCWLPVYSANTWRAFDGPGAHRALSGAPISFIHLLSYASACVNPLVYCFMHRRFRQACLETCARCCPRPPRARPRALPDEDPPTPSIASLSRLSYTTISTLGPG

[4] = target: T1, Gamma-aminobutyric acid receptor subunit alpha-1
[5] = target: Neuronal acetylcholine receptor subunit alpha-4 (Homo sapiens, UniProt P43681)
Neuronal acetylcholine receptor subunit alpha-4, sequence (P43681 whole entry): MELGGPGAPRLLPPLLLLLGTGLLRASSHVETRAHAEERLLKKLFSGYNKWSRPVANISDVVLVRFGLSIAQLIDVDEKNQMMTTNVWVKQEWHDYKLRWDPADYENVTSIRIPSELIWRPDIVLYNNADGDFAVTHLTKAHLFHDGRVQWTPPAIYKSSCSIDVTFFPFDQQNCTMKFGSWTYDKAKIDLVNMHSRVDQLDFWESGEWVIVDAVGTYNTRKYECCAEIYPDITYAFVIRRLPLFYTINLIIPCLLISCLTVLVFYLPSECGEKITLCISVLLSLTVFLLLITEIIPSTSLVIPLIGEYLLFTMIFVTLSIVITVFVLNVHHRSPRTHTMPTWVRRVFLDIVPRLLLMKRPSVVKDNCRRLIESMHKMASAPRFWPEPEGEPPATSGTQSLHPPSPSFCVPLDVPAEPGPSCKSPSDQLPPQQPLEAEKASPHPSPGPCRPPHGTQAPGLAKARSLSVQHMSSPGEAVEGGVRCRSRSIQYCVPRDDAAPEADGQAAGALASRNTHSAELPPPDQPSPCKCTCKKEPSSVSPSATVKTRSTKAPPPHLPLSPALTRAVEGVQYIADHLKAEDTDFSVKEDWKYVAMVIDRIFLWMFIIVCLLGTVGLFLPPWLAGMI

[6] = target: T3, 5-hydroxytryptamine receptor 1A (Homo sapiens, UniProt P08908); type: functional, cell-based
T3 sequence (P08908 whole entry): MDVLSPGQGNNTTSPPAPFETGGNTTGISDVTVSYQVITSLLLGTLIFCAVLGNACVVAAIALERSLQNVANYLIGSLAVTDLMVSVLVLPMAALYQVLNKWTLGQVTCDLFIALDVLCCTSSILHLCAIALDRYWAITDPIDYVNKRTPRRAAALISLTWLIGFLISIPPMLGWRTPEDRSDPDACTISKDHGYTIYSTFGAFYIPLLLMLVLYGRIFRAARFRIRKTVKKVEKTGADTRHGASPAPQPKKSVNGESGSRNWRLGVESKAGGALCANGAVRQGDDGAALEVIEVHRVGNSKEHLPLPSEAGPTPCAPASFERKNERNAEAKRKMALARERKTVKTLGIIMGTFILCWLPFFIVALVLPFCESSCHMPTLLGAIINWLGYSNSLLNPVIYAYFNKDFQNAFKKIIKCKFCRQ

[7] = target: T4, Alpha-1A adrenergic receptor (Homo sapiens, UniProt P35348); type: functional, cell-based
T4 sequence (P35348 whole entry): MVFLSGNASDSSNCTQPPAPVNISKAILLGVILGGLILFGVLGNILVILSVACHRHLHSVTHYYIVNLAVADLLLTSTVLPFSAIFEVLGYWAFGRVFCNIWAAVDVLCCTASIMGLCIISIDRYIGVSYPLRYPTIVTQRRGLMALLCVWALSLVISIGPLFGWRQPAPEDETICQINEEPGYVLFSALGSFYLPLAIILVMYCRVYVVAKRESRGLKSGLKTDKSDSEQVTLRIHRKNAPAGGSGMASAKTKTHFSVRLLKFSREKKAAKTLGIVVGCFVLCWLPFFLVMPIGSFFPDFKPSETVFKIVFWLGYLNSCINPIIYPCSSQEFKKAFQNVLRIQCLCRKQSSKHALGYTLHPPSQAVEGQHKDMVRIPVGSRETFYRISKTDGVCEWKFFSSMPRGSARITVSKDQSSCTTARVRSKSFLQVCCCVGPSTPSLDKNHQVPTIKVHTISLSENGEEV

[8] = target: Sodium-dependent serotonin transporter (Homo sapiens, UniProt P31645)
Sodium-dependent serotonin transporter, sequence (P31645 whole entry): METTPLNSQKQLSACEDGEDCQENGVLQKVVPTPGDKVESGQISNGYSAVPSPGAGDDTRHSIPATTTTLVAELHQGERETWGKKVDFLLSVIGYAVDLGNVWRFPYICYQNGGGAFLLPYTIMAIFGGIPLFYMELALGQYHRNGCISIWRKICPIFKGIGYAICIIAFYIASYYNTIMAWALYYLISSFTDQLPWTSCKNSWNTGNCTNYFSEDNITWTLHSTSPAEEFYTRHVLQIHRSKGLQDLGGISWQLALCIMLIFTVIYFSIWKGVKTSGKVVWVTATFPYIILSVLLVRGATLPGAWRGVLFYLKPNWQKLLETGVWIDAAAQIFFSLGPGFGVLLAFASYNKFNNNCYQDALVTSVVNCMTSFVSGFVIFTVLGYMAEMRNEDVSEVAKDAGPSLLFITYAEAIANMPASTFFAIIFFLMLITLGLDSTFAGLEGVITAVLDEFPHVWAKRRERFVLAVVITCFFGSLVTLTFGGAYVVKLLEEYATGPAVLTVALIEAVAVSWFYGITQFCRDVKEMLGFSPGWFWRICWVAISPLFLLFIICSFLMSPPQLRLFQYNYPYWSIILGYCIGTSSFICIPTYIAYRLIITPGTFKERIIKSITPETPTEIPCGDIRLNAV

[9] = target: Cannabinoid receptor 1 (Homo sapiens, UniProt P21554); type: functional, cell-based
Cannabinoid receptor 1, sequence (P21554 whole entry): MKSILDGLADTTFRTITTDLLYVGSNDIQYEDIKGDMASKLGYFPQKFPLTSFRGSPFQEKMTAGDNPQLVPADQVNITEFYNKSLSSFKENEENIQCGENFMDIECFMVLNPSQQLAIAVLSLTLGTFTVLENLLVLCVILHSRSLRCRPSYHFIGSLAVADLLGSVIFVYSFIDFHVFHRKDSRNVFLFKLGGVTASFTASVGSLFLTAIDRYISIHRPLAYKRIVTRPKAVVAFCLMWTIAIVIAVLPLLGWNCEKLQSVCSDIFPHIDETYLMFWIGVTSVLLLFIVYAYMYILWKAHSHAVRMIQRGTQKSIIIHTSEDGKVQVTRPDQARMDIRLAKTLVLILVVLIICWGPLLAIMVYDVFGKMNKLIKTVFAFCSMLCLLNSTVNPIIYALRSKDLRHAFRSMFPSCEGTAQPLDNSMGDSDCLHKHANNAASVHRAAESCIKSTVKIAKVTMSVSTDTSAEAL

[10] = target: D(3) dopamine receptor (Homo sapiens, UniProt P35462)
D(3) dopamine receptor, sequence (P35462 whole entry): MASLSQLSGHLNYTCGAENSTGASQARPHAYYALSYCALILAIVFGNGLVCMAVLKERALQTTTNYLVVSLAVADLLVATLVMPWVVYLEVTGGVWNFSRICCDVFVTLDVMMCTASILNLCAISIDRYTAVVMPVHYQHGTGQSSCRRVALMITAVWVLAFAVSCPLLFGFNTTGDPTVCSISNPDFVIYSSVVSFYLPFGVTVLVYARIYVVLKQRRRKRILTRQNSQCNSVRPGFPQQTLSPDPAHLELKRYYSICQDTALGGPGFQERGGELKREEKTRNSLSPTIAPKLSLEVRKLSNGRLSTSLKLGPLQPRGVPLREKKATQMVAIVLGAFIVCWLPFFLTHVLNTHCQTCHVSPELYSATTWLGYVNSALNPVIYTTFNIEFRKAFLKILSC

[11] = target: Muscarinic acetylcholine receptor M3 (Homo sapiens, UniProt P20309)
Muscarinic acetylcholine receptor M3, sequence (P20309 whole entry): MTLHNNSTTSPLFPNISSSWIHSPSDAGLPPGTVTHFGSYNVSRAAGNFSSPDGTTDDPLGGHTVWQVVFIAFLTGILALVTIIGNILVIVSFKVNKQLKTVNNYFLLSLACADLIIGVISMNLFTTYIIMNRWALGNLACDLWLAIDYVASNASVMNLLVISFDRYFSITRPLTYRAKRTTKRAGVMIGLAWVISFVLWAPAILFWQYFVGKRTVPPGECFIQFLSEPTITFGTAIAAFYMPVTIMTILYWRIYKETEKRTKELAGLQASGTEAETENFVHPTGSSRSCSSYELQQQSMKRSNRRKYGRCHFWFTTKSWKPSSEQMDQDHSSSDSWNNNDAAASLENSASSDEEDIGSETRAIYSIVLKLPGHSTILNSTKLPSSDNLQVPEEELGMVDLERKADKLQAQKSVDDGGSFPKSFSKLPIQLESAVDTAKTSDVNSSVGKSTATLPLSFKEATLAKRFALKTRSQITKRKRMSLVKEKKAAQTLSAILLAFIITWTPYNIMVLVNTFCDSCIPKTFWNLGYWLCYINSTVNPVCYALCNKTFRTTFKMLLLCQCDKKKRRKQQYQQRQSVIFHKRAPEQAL

[12] = target: T5, Endothelin-1 receptor (Homo sapiens, UniProt P25101)
T5 sequence (P25101 whole entry): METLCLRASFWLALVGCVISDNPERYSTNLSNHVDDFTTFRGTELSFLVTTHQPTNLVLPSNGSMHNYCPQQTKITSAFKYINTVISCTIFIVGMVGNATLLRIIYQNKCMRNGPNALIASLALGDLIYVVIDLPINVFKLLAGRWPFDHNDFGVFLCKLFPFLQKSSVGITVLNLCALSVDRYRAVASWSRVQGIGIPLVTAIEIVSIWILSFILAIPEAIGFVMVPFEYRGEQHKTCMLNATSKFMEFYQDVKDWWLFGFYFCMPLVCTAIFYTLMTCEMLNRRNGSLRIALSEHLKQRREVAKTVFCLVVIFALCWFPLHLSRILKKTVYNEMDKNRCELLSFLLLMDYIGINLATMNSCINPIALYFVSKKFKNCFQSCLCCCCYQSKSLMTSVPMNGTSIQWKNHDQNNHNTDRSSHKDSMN

[13] = target: Kappa-type opioid receptor (Homo sapiens, UniProt P41145)
Kappa-type opioid receptor, sequence (P41145 whole entry): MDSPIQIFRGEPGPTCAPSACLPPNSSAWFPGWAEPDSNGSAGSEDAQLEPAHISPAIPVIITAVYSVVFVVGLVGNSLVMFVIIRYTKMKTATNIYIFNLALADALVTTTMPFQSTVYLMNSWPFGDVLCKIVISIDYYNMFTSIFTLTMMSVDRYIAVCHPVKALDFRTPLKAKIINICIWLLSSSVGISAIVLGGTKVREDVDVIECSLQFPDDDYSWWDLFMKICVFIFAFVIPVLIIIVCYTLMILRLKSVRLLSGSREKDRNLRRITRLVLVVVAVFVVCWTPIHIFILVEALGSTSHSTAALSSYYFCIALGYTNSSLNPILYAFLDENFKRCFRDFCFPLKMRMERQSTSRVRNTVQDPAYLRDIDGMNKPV

[14] = target: 5-hydroxytryptamine receptor 2B (Homo sapiens, UniProt P41595); type: functional, cell-based
5-hydroxytryptamine receptor 2B, sequence (P41595 whole entry): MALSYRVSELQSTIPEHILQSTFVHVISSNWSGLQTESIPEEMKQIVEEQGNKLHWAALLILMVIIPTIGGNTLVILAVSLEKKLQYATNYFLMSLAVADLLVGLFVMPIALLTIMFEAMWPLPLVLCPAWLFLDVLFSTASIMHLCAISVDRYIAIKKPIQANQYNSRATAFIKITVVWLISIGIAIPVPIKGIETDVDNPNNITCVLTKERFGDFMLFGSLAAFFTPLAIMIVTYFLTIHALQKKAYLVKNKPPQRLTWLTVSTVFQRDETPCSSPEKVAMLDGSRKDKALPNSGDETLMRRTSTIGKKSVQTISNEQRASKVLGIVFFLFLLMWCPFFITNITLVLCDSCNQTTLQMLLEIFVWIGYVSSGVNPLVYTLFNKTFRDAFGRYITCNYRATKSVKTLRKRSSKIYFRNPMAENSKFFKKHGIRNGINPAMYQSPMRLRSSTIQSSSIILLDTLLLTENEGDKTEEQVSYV

[15] = target: T6, Alpha-2C adrenergic receptor (Homo sapiens, UniProt P18825); type: functional
T6 sequence (P18825 whole entry): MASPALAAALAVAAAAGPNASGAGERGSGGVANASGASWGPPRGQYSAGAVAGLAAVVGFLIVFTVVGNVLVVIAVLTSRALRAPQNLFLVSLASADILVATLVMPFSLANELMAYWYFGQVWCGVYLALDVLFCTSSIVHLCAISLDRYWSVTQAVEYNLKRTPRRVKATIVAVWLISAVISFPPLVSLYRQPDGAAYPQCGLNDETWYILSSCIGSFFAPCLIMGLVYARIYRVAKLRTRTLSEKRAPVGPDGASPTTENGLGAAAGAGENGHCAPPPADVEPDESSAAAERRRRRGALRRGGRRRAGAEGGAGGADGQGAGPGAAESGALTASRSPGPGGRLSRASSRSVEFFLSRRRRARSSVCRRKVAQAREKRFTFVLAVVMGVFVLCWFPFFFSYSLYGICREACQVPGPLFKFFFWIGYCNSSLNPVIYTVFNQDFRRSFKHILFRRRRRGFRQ

[16] = target: Vasopressin V2 receptor (Homo sapiens, UniProt P30518)
Vasopressin V2 receptor, sequence (P30518 whole entry): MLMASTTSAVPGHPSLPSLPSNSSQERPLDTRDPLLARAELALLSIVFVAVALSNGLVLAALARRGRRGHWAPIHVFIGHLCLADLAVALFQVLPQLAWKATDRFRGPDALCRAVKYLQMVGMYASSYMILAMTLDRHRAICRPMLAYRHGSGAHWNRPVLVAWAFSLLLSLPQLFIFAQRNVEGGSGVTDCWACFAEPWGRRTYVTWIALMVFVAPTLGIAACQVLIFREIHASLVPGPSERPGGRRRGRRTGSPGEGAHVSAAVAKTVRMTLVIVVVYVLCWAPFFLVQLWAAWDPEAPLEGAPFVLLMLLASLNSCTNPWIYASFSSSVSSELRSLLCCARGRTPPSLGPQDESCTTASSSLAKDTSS
Note: assay procedure not described here.

5-hydroxytryptamine receptor 2A, sequence (P28223 whole entry): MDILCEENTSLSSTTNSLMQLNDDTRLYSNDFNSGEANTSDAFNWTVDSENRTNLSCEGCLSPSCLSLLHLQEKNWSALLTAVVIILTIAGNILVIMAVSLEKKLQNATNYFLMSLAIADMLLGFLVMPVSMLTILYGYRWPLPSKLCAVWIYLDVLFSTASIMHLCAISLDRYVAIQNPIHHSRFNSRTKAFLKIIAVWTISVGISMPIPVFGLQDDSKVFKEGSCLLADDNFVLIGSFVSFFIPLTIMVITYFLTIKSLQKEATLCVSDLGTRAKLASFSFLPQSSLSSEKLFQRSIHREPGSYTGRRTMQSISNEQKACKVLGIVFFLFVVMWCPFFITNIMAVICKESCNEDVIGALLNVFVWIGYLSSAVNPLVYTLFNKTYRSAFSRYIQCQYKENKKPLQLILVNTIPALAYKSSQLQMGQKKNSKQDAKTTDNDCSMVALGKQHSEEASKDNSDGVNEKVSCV
T1 sequence (P62813 whole entry): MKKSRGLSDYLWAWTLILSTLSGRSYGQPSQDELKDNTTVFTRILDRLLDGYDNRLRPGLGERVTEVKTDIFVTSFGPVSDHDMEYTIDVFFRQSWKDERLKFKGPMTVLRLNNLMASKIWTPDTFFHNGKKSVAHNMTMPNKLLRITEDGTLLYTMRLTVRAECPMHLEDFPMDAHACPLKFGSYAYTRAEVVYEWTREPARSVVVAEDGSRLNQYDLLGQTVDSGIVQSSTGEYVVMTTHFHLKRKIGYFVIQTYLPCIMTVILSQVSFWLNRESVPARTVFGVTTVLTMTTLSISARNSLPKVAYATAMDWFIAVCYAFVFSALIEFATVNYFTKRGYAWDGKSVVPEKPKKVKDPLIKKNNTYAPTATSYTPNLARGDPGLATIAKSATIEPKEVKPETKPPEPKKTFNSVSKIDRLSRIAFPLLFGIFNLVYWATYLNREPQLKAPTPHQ

Row | SMILES | AC50 [1] [µM] | AC50 [2] [µM] | AC50 [3] [µM] | AC50 [4] [µM] | AC50 [5] [µM] | AC50 [6] [µM] | AC50 [7] [µM] | AC50 [8] [µM] | AC50 [9] [µM] | AC50 [10] [µM] | AC50 [11] [µM] | AC50 [12] [µM] | AC50 [13] [µM] | AC50 [14] [µM] | AC50 [15] [µM] | AC50 [16] [µM]
1 | NC(CO)C(=O)NNCc1ccc(O)c(O)c1O (centres undefined) [BENSERAZIDE] | > 10 | > 30 | > 30 | > 10 | > 10 | > 10 | > 30 | > 30 | > 30 | > 30 | > 30 | > 30 | > 10 | > 10 | > 10 | > 30
2 | C[C@H]1C[C@@H]2[C@H]([C@@H](O)C[C@@]3(C)[C@H]2CC[C@]3(O)C(=O)COC(=O)CCC(=O)O)[C@@]2(C)C=CC(=O)C=C12 [METHYLPREDNISOLONE HEMISUCCINATE] | > 30 | > 30 | > 30 | > 30 | > 30 | > 30 | > 30 | > 30 | > 30 | > 30 | > 30 | > 30 | > 30 | > 30 | > 30 | > 30
3 | CCOC(=O)[C@H](CCc1ccccc1)N[C@H]1CCCN2CCC[C@@H](C(=O)O)N2C1=O [CILAZAPRIL] | > 30 | > 30 | > 30 | > 30 | > 30 | > 30 | > 30 | > 30 | > 30 | > 30 | > 30 | > 30 | > 30 | > 30 | > 30 | > 30
4 | CN1CCN(C(=O)OC2c3nccnc3C(=O)N2c2ccc(Cl)cn2)CC1 (centres undefined) [ZOPICLONE] | 0.093 | > 30 | > 30 | > 10 | > 30 | > 10 | > 30 | > 30 | > 30 | > 10 | > 30 | > 30 | > 10 | > 10 | > 30 | > 30
5 | CCCCC(C)(O)C/C=C/[C@H]1[C@H](O)CC(=O)[C@@H]1CCCCCCC(=O)OC (some centres undefined) [MISOPROSTOL] | > 30 | > 30 | > 30 | > 30 | > 30 | > 30 | > 30 | > 30 | > 30 | > 30 | > 30 | > 30 | > 30 | > 30 | > 30 | > 30
6 | Cc1cc(-c2ccccc2)nnc1NCCN1CCOCC1 [MINAPRINE] | > 10 | > 30 | > 30 | > 10 | > 10 | > 10 | > 30 | > 10 | > 30 | > 10 | > 10 | > 30 | > 10 | 5.4 | > 10 | > 30
7 | Cc1c(Cl)cccc1Nc1ccccc1C(=O)O [TOLFENAMIC ACID] | > 30 | > 30 | > 10 | > 30 | > 30 | > 30 | > 30 | > 30 | > 30 | > 30 | > 30 | > 30 | > 30 | > 30 | > 30 | > 30
8 | CCCCCCC(C)(C)c1cc(O)c2c(c1)OC(C)(C)C1CCC(=O)CC21 (centres undefined) [NABILONE] | > 30 | > 30 | > 30 | > 30 | > 30 | > 30 | > 30 | > 30 | 0.168 | > 30 | > 30 | > 30 | > 30 | > 30 | > 30 | > 30
9 | O=C(OCCN1CCOCC1)c1cccnc1Nc1cccc(C(F)(F)F)c1 [MORNIFLUMATE] | > 30 | > 30 | > 30 | > 30 | > 30 | > 30 | > 30 | > 30 | > 30 | > 30 | > 30 | > 30 | 24 | 10 | > 30 | > 30
10 | COc1ccc(C(=O)NCc2ccc(OCCN(C)C)cc2)cc1OC [ITOPRIDE] | > 30 | > 30 | > 30 | > 30 | > 30 | > 30 | > 30 | > 30 | > 30 | 20 | > 30 | > 30 | > 30 | > 30 | > 30 | > 30
11 | CN1CCc2cccc3c2[C@H]1Cc1ccc(O)c(O)c1-3 [APOMORPHINE] | > 10 | > 30 | 23.4 | > 10 | > 10 |  | 0.32 | 21.9 | > 30 |  | > 30 | > 30 | 19.4 | 4.7 | 3.2 | > 30
